Assay results: PubChem BioAssay (NCI)
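At the GI50, growth is halved. TGI: total growth inhibition.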

Tests used:
Assay in all cases: NCI anticancer screen, dose series, 384-well format
[1] = test system: A498 renal
[2] = test system: A549 NSCLC
[3] = test system: ACHN renal
[4] = test system: BT-549 breast
[5] = test system: CAKI-1 renal
[6] = test system: CCRF-CEM leukemia
[7] = test system: COLO 205 colon
[8] = test system: DU-145 prostate
[9] = test system: EKVX NSCLC
[10] = test system: HCC-2998 colon
[11] = test system: HCT-116 colon
[12] = test system: HL-60(TB) leukemia
[13] = test system: HOP-62 NSCLC
[14] = test system: HOP-92 NSCLC
[15] = test system: HS 578T breast
[16] = test system: HT29 colon
[17] = test system: IGROV1 ovarian
[18] = test system: K-562 leukemia
[19] = test system: KM12 colon
[20] = test system: LOX IMVI melanoma
[21] = test system: M14 melanoma
[22] = test system: MALME-3M melanoma
[23] = test system: MCF7 breast
[24] = test system: MDA-MB-231 breast
[25] = test system: MDA-MB-435 melanoma
[26] = test system: MDA-MB-468 breast
[27] = test system: MOLT-4 leukemia
[28] = test system: NCI-H226 lung
[29] = test system: NCI-H23 lung
[30] = test system: NCI-H322M lung
[31] = test system: NCI-H460 NSCLC
[32] = test system: NCI-H522 lung
[33] = test system: NCI/ADR-RES ovarian
[34] = test system: OVCAR-3 ovarian
[35] = test system: OVCAR-4 ovarian
[36] = test system: OVCAR-5 ovarian
[37] = test system: OVCAR-8 ovarian
[38] = test system: PC-3 prostate
[39] = test system: RPMI-8226 leukemia
[40] = test system: RXF 393 renal
[41] = test system: SF-268 CNS
[42] = test system: SF-295 CNS
[43] = test system: SF-539 CNS
[44] = test system: SK-MEL-2 melanoma
[45] = test system: SK-MEL-28 melanoma
[46] = test system: SK-MEL-5 melanoma
[47] = test system: SK-OV-3 ovarian
[48] = test system: SN12C renal
[49] = test system: SNB-19 CNS
[50] = test system: SNB-75 CNS
[51] = test system: SW-620 colon
[52] = test system: TK-10 renal
[53] = test system: U251 glioblastoma
[54] = test system: UACC-257 melanoma
[55] = test system: UACC-62 melanoma
[56] = test system: UO-31 renal

Cc1cc(-c2cnn3c(NCC4CC(C)(O)C4)cc(Oc4cccnc4)nc23)ccc1C(=O)NC1CC1 (configuration not stated)
GI50 [1]: 92.1 nM | TGI [1]: > 100000 nM | GI50 [2]: 90.2 nM | TGI [2]: > 100000 nM | GI50 [3]: 906 nM | TGI [3]: > 100000 nM | GI50 [4]: 139 nM | TGI [4]: > 100000 nM | GI50 [5]: 560 nM | TGI [5]: 94500 nM | GI50 [6]: 23.9 nM | TGI [6]: 50.7 nM | GI50 [7]: 39.4 nM | TGI [7]: > 100000 nM | GI50 [8]: 68.9 nM | TGI [8]: > 100000 nM | GI50 [9]: 1780 nM | TGI [9]: > 100000 nM | GI50 [10]: 5560 nM | TGI [10]: > 100000 nM | GI50 [11]: 49 nM | TGI [11]: > 100000 nM | GI50 [12]: 29.3 nM | TGI [12]: 63.6 nM | GI50 [13]: 83.4 nM | TGI [13]: > 100000 nM | GI50 [14]: 4880 nM | TGI [14]: > 100000 nM | GI50 [15]: 324 nM | TGI [15]: 38400 nM | GI50 [16]: 2110 nM | TGI [16]: > 100000 nM | GI50 [17]: 1010 nM | TGI [17]: > 100000 nM | GI50 [18]: 818 nM | TGI [18]: > 100000 nM | GI50 [19]: 67.3 nM | TGI [19]: > 100000 nM | GI50 [20]: 49.5 nM | TGI [20]: > 100000 nM | GI50 [21]: 245 nM | TGI [21]: > 100000 nM | GI50 [22]: 1090 nM | TGI [22]: > 100000 nM | GI50 [23]: 17200 nM | TGI [23]: > 100000 nM | GI50 [24]: 735 nM | TGI [24]: > 100000 nM | GI50 [25]: 6160 nM | TGI [25]: > 100000 nM | GI50 [26]: 352 nM | TGI [26]: 4670 nM | GI50 [27]: 22.7 nM | TGI [27]: 43.1 nM | GI50 [28]: 77300 nM | TGI [28]: > 100000 nM | GI50 [29]: 374 nM | TGI [29]: > 100000 nM | GI50 [30]: 4570 nM | TGI [30]: 21200 nM | GI50 [31]: 188 nM | TGI [31]: 11900 nM | GI50 [32]: 467 nM | TGI [32]: 33000 nM | GI50 [33]: 5900 nM | TGI [33]: > 100000 nM | GI50 [34]: 173 nM | TGI [34]: 87900 nM | GI50 [35]: 5590 nM | TGI [35]: > 100000 nM | GI50 [36]: 1980 nM | TGI [36]: > 100000 nM | GI50 [37]: 80.4 nM | TGI [37]: > 100000 nM | GI50 [38]: 1840 nM | TGI [38]: > 100000 nM | GI50 [39]: 305 nM | TGI [39]: 995 nM | GI50 [40]: 64.5 nM | TGI [40]: 2980 nM | GI50 [41]: 2180 nM | TGI [41]: > 100000 nM | GI50 [42]: 1860 nM | TGI [42]: > 100000 nM | GI50 [43]: 45.5 nM | TGI [43]: > 100000 nM | GI50 [44]: 431 nM | TGI [44]: 3540 nM | GI50 [45]: 11300 nM | TGI [45]: > 100000 nM | GI50 [46]: 74.5 nM | TGI [46]: > 100000 nM | GI50 [47]: 903 nM | TGI [47]: > 100000 nM | GI50 [48]: 1810 nM | TGI [48]: > 100000 nM | GI50 [49]: > 100000 nM | TGI [49]: > 100000 nM | GI50 [50]: 1910 nM | TGI [50]: > 100000 nM | GI50 [51]: 62.1 nM | TGI [51]: > 100000 nM | GI50 [52]: 442 nM | TGI [52]: > 100000 nM | GI50 [53]: 65 nM | TGI [53]: > 100000 nM | GI50 [54]: 30700 nM | TGI [54]: > 100000 nM | GI50 [55]: 972 nM | TGI [55]: 62100 nM | GI50 [56]: 686 nM | TGI [56]: > 100000 nM
